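How tested: cells in 96-well plates exposed to compound for 48 hours at five concentrations. TGI denotes the concentration required for complete inhibition of growth.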
How the values were obtained:
Experiment in all cases: inhibition of tumour cell growth, NCI panel, 48 h
[1] = test system: 786-0 renal
[2] = test system: A498 renal
[3] = test system: A549 NSCLC
[4] = test system: ACHN renal
[5] = test system: CAKI-1 renal
[6] = test system: CCRF-CEM leukemia
[7] = test system: COLO 205 colon
[8] = test system: DLD-1 colon
[9] = test system: DMS 114 small cell lung
[10] = test system: DMS 273 small cell lung
[11] = test system: EKVX NSCLC
[12] = test system: HCC-2998 colon
[13] = test system: HCT-116 colon
[14] = test system: HCT-15 colon
[15] = test system: HL-60(TB) leukemia
[16] = test system: HOP-18 NSCLC
[17] = test system: HOP-62 NSCLC
[18] = test system: HOP-92 NSCLC
[19] = test system: IGROV1 ovarian
[20] = test system: K-562 leukemia
[21] = test system: KM12 colon
[22] = test system: KM20L2 colon
[23] = test system: LOX IMVI melanoma
[24] = test system: LXFL 529 NSCLC
[25] = test system: M14 melanoma
[26] = test system: M19-MEL melanoma
[27] = test system: MALME-3M melanoma
[28] = test system: MOLT-4 leukemia
[29] = test system: NCI-H226 lung
[30] = test system: NCI-H23 lung
[31] = test system: NCI-H460 lung
[32] = test system: NCI-H522 lung
[33] = test system: OVCAR-3 ovarian
[34] = test system: OVCAR-4 ovarian
[35] = test system: OVCAR-5 ovarian
[36] = test system: OVCAR-8 ovarian
[37] = test system: RPMI-8226 leukemia
[38] = test system: RXF 393 renal
[39] = test system: SF-268 CNS
[40] = test system: SF-295 CNS
[41] = test system: SF-539 CNS
[42] = test system: SK-MEL-2 melanoma
[43] = test system: SK-MEL-28 melanoma
[44] = test system: SK-MEL-5 melanoma
[45] = test system: SK-OV-3 ovarian
[46] = test system: SN12C renal
[47] = test system: SNB-19 CNS
[48] = test system: SNB-75 CNS
[49] = test system: SNB-78 CNS
[50] = test system: SW-620 colon
[51] = test system: TK-10 renal
[52] = test system: U251 CNS
[53] = test system: UACC-257 melanoma
[54] = test system: UACC-62 melanoma
[55] = test system: UO-31 renal
[56] = test system: XF 498 CNS
[57] = test system: HT29 colon

Measured: TGI

CN(C)c1ccc(/C=c2\sc3nnc(-c4cccnc4)n3c2=O)cc1
not listed: [57]
> 100 µM: all other assays above

O=C(Nc1ccccc1)c1cccc([N+](=O)[O-])c1
not listed: [8] | [15] | [21] | [23] | [24] | [25] | [29] | [30] | [31] | [32] | [34] | [35] | [38] | [40] | [42] | [45] | [51] | [53] | [55]
> 100 µM: all other assays above

N#Cc1c(-c2ccccc2)cc(-c2cccs2)c(C#N)c1N
55.2 µM: [48]
0.0879 µM: [16]
not listed: [7] | [9] | [19] | [26] | [29] | [30] | [35] | [38] | [42] | [43] | [45] | [54] | [55]
> 100 µM: all other assays above

NC1=NC2=C(CCCC2)C(c2cccs2)S1 (configuration not stated)
74.3 µM: [55]
not listed: [8] | [23] | [29]
> 100 µM: all other assays above
